Molecules are shown by their SMILES.

One data set in a line: Aqueous Solubility Assay. To be noted: PBS buffer pH 7.4; maximum upper limit 1,000 μM.
For the next data set, the target named is JAK3 (Homo sapiens (Human), UniProt P52333). The data set is described as follows: Biochemical JAK and Tyk2 Kinase Assays (LanthaScreen), JAK3. To be noted: 1.6 μM ATP (Km); pIC50 converted to pKi by Cheng-Prusoff. For orientation: In TR-FRET formats the signal depends on donor and acceptor labels being close together.
For data set [1], the system named is IL-2 stimulated pSTAT5 in Tall-1 T cells. The data set is described as follows: Inhibition of IL-2 Stimulated pSTAT5 in Tall-1 T Cells. The format is cell-based. The conditions noted are these: Tall-1 human T cell line, IL-2 300 ng/mL, AlphaLisa. Put shortly: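 Cells preincubated with compound 1 hour at 37° C, then stimulated with IL-2 (final 300 ng/mL) for 30 minutes. After lysis, pSTAT5 (Tyr694/699) read by AlphaLISA luminescence. IC50 from inhibition curves, reported as pIC50 (mean±SD).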
In general terms: In Alpha technology, singlet oxygen from a donor bead excites a nearby acceptor bead.

In a further data set the target is JAK1 (Homo sapiens (Human), UniProt P23458). The data set is described as follows: Biochemical JAK and Tyk2 Kinase Assays (LanthaScreen), JAK1. To be noted: 25 μM ATP (Km); pIC50 converted to pKi by Cheng-Prusoff.
Another data set relates to Caco-2 cell monolayer. The data set is described as follows: Caco-2 Permeation Assay. It is filed as in vitro ADME. To be noted: Papp, 5 μM compound; for Cacoverap Kp 10^−6 cm/sec: A→B in the presence of 25 μM verapamil (P-gp inhibitor); for Caco Kp 10^−6 cm/sec: apical to basal (A→B). As for the experimental part:
Assay 3: Caco-2 Permeation Assay
The Caco 2 permeability assay was used as a surrogate for assessment of skin permeability. This assay measures the in vitro permeability across a monolayer of Caco-2 cells, which morphologically and functionally resemble the enterocytes of the small intestine.
CacoReady 24-well transwell plates were obtained from ADMEcell (Alameda, Calif.). The compounds were evaluated at a concentration of 5 μM from 10 mM DMSO stock solutions in duplicate (n=2). Transport in the apical to basal (A→B) direction was determined in Caco 2 cell monolayers. From these values the apparent permeability (Papp) was calculated. To inform on the potential of the compound to be a P-gp substrate, the transport of the compound across the Caco-2 cell monolayer was also determined in the presence of 25 μM of the known P-gp inhibitor verapamil (Yusa and Tsuruo et al., Cancer Research, vol. 49, no. 18, 1989, pp. 5002-06).
Caco-2 culture media consisted of standard filtered DMEM, FCS 10%, L-Glutamine 1%, and PenStrep 1%. The experiment was conducted at 37° C. and in a CO2 (5%) incubator. The basal assay plate was prepared by adding 750 pt of transport buffer to A→B wells. A CacoReady™ plate was prepared by removing the Caco-2 media from the apical wells and replacing with fresh transport media (200 pt repeated for a total of 3 washes). Blank media (200 μL) was then replaced with diluted compound. To begin the incubation, the basal plate was removed from the incubator and the apical section was added on top of it. Samples were collected from the apical and basal compartments for time zero (t0). Samples were collected again after 120 minutes (t120) from the apical and basal compartments. All samples were diluted and prepared for bioanalysis by LC-MS/MS. The permeability coefficients (Papp, mean A to B) and (Papp, mean A to B+Verapamil) in cm/sec were calculated as dQ (flux)/(dt×Area×concentration).
In this assay, a compound with a Papp value of more than about 12×10−6 cm/sec is considered to have high permeability.

The nature of data set [2]: Solubility Assay in Organic Excipients. The conditions noted are these: maximum upper limit 20,000 μM; for Solubility in MCT (mg/mL): medium chain triglycerides (MCT).

Sequence of JAK3 (P52333 whole entry): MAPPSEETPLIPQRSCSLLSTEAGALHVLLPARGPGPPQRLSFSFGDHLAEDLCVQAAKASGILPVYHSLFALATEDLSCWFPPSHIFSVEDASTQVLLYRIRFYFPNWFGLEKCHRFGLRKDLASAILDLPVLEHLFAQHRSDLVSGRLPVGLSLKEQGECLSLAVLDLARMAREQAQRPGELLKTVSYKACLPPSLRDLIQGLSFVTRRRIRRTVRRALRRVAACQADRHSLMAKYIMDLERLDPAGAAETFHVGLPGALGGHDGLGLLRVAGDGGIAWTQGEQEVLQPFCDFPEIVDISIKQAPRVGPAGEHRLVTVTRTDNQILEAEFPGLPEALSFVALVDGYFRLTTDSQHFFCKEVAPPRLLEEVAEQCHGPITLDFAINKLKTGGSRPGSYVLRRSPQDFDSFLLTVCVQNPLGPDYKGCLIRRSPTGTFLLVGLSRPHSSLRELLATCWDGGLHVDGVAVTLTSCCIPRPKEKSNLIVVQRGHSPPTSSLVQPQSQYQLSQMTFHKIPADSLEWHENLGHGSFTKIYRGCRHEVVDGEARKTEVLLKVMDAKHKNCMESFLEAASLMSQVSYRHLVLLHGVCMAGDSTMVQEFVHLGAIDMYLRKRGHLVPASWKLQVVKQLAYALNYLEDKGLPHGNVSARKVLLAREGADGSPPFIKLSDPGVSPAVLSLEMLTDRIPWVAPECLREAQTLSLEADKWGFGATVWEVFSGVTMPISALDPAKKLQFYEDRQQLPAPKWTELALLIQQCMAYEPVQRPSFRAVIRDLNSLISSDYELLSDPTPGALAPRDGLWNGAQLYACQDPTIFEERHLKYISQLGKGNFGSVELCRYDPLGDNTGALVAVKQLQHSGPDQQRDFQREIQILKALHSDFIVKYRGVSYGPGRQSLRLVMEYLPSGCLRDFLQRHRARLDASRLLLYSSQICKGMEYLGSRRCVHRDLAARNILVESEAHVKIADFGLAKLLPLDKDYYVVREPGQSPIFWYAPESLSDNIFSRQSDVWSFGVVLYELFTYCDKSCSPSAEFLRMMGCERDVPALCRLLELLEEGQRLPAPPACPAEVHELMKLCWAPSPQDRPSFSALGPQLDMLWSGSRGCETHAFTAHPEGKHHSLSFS
Sequence of JAK1 (P23458 whole entry): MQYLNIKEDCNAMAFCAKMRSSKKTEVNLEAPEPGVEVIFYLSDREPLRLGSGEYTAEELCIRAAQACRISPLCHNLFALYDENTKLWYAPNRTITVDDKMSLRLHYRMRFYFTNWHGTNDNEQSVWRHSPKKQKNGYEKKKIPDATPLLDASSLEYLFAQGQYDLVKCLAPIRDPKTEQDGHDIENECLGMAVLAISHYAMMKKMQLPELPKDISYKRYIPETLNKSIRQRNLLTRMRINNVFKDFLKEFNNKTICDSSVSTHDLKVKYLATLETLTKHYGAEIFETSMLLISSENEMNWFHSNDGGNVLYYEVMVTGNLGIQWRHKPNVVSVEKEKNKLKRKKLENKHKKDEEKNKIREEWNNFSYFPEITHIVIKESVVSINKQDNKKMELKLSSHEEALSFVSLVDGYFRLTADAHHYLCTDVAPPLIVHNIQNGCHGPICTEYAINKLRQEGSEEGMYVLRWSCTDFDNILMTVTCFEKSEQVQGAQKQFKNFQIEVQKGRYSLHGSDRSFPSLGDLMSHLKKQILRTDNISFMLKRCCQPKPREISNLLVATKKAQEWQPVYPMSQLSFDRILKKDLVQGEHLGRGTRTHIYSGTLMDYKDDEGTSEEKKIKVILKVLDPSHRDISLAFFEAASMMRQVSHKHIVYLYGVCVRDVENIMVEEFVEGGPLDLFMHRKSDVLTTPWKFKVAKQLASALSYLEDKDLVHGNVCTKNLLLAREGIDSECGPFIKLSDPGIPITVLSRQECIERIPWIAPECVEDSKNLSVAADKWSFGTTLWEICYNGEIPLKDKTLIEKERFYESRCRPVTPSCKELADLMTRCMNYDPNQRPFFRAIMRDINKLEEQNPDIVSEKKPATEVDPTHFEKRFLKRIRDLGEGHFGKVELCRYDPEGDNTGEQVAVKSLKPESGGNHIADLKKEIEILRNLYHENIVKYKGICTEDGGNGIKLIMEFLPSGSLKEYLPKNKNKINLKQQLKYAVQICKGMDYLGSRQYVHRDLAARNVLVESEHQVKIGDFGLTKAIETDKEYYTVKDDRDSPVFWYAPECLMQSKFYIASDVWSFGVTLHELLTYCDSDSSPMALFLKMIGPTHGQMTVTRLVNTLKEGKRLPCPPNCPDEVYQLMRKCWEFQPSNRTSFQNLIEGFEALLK

For the compound `CCNC(=O)CN1[C@@H]2CCC[C@H]1C[C@H](N(C)c1nc(Nc3cc(C)[nH]n3)cc(C3CCCO3)n1)C2` (stereo partly drawn) [Compound 15, N-ethyl-2-((1R,3s,5S)-3-(methyl(4-((5-methyl-1H-pyrazol-3-yl)amino)-6-(tetrahydrofuran-2-yl)pyrimidin-2-yl)amino)-9-azabicyclo[3.3.1]nonan-9-yl)acetamide], the “Solubility at PH 7.4 (μmol)” value in “Aqueous Solubility Assay” was “A (A represents a value above 500)”. The “JAK 3 (pKi)” value at JAK3 is “B (B represents a pKi value between 9 and 10 (Ki between 1 nM and 0.1 nM))”. Moreover, the “Tall-1 IL2 pSTAT5 (pIC50)” value in data set [1] is given as “A (A represents a pIC50 value ≥8.0)”. For the same compound, the “JAK 1 (pKi)” value on JAK1 is reported as “A (A represents a pKi value ≥10 (Ki≤0.1 nM))”. Further, in the data set on Caco-2 cell monolayer, the “Cacoverap Kp 10^−6 cm/sec” value was “B (B represents a value between 20×10^−6 and 35×10^−6 cm/sec)”; the “Caco Kp 10^−6 cm/sec” value is “B (B represents a value between 15×10^−6 and 30×10^−6 cm/sec)”. In data set [2], the “Solubility in PEG400 (mg/mL)” value was “B (B represents a value between 5 and 10)”; the “Solubility in Diisopropyl adipate (mg/mL)” value was “A (A represents a value above 10)”; the “Solubility in MCT (mg/mL)” value is listed as “C (C represents a value below 5)”; the “Solubility in Propylene glycol (mg/mL)” value is on record as “A (A represents a value above 10)”.
With `CCS(=O)(=O)N1[C@@H]2CCC[C@H]1C[C@H](N(C)c1nc(Nc3cc(C)[nH]n3)c(F)c(C3CCOCC3)n1)C2` [Compound 45, N2-((1R,3s,5S)-9-(ethylsulfonyl)-9-azabicyclo[3.3.1]nonan-3-yl)-5-fluoro-N2-methyl-N4-(5-methyl-1H-pyrazol-3-yl)-6-(tetrahydro-2H-pyran-4-yl)pyrimidine-2,4-diamine], the “Solubility at PH 7.4 (μmol)” value in the data set “Aqueous Solubility Assay” was “E (E represents a value below 10)”. Moreover, the “JAK 3 (pKi)” value on JAK3 was “C (C represents a pKi value between 8 and 9 (Ki between 10 nM and 1 nM))”. The “Tall-1 IL2 pSTAT5 (pIC50)” value in data set [1] is “A (A represents a pIC50 value ≥8.0)”. At JAK1, the “JAK 1 (pKi)” value was “B (B represents a pKi value between 9 and 10 (Ki between 1 nM and 0.1 nM))”. In the data set with Caco-2 cell monolayer, the “Cacoverap Kp 10^−6 cm/sec” value was “B (B represents a value between 20×10^−6 and 35×10^−6 cm/sec)”; the “Caco Kp 10^−6 cm/sec” value was “B (B represents a value between 15×10^−6 and 30×10^−6 cm/sec)”. In data set [2], the “Solubility in PEG400 (mg/mL)” value is “A (A represents a value above 10)”, the “Solubility in Diisopropyl adipate (mg/mL)” value was “A (A represents a value above 10)”, the “Solubility in MCT (mg/mL)” value was “C (C represents a value below 5)” and the “Solubility in Propylene glycol (mg/mL)” value is given as “A (A represents a value above 10)”.
As to `Cc1cc(Nc2cc(C3CCCO3)nc(N(C)[C@@H]3C[C@H]4CCC[C@@H](C3)N4C(=O)CC3CC3)n2)n[nH]1` (stereo partly drawn) [Compound 12, 2-cyclopropyl-1-((1R,3s,5S)-3-(methyl(4-((5-methyl-1H-pyrazol-3-yl)amino)-6-(tetrahydrofuran-2-yl)pyrimidin-2-yl)amino)-9-azabicyclo[3.3.1]nonan-9-yl)ethan-1-one], the “Solubility at PH 7.4 (μmol)” value in “Aqueous Solubility Assay” was “C (C represents a value between 50 and 250)”. Further, at JAK3, the “JAK 3 (pKi)” value is “C (C represents a pKi value between 8 and 9 (Ki between 10 nM and 1 nM))”. Moreover, the “Tall-1 IL2 pSTAT5 (pIC50)” value in data set [1] is on record as “A (A represents a pIC50 value ≥8.0)”. Besides, the “JAK 1 (pKi)” value on JAK1 is “B (B represents a pKi value between 9 and 10 (Ki between 1 nM and 0.1 nM))”. Also, in the data set with Caco-2 cell monolayer, the “Cacoverap Kp 10^−6 cm/sec” value was “C (C represents a value between 12×10^−6 and 20×10^−6 cm/sec)”; the “Caco Kp 10^−6 cm/sec” value was “B (B represents a value between 15×10^−6 and 30×10^−6 cm/sec)”. Also, in data set [2], the “Solubility in PEG400 (mg/mL)” value is “B (B represents a value between 5 and 10)”; the “Solubility in Diisopropyl adipate (mg/mL)” value was “B (B represents a value between 5 and 10)”; the “Solubility in MCT (mg/mL)” value was “C (C represents a value below 5)”; the “Solubility in Propylene glycol (mg/mL)” value is “B (B represents a value between 5 and 10)”.
In the case of `CCS(=O)(=O)N1[C@@H]2CCC[C@H]1C[C@H](N(C)c1nc(Nc3cc(C)[nH]n3)cc(OCC3COC3)n1)C2` [Compound 39, N^2-((1R,3s,5S)-9-(ethylsulfonyl)-9-azabicyclo[3.3.1]nonan-3-yl)-N2-methyl-N4-(5-methyl-1H-pyrazol-3-yl)-6-(oxetan-3-ylmethoxy)pyrimidine-2,4-diamine], in “Aqueous Solubility Assay”, the “Solubility at PH 7.4 (μmol)” value was “E (E represents a value below 10)”. The “JAK 3 (pKi)” value on JAK3 was “A (A represents a pKi value ≥10 (Ki≤0.1 nM))”. The “JAK 1 (pKi)” value on JAK1 was “A (A represents a pKi value ≥10 (Ki≤0.1 nM))”. Also, in the data set with Caco-2 cell monolayer, the “Cacoverap Kp 10^−6 cm/sec” value is “B (B represents a value between 20×10^−6 and 35×10^−6 cm/sec)”; the “Caco Kp 10^−6 cm/sec” value was “B (B represents a value between 15×10^−6 and 30×10^−6 cm/sec)”. In data set [2], the “Solubility in PEG400 (mg/mL)” value is “A (A represents a value above 10)”; the “Solubility in Diisopropyl adipate (mg/mL)” value is “B (B represents a value between 5 and 10)”; the “Solubility in MCT (mg/mL)” value was “C (C represents a value below 5)”; the “Solubility in Propylene glycol (mg/mL)” value was “B (B represents a value between 5 and 10)”.
For the compound `CCS(=O)(=O)N1[C@@H]2CCC[C@H]1C[C@H](N(C)c1nc(Nc3cc(C)[nH]n3)cc(C3CCOC(C)(C)C3)n1)C2` (stereo partly drawn) [Compound 2, 6-(2,2-dimethyltetrahydro-2H-pyran-4-yl)-N2-((1R,3s,5S)-9-(ethylsulfonyl)-9-azabicyclo[3.3.1]nonan-3-yl)-N2-methyl-N4-(5-methyl-1H-pyrazol-3-yl)pyrimidine-2,4-diamine], in the data set “Aqueous Solubility Assay”, the “Solubility at PH 7.4 (μmol)” value was “C (C represents a value between 50 and 250)”. In addition, the “JAK 3 (pKi)” value at JAK3 is “B (B represents a pKi value between 9 and 10 (Ki between 1 nM and 0.1 nM))”. Moreover, in data set [1], the “Tall-1 IL2 pSTAT5 (pIC50)” value is reported as “A (A represents a pIC50 value ≥8.0)”. Further, on JAK1, the “JAK 1 (pKi)” value was “B (B represents a pKi value between 9 and 10 (Ki between 1 nM and 0.1 nM))”. Moreover, in data set [2], the “Solubility in PEG400 (mg/mL)” value is recorded as “C (C represents a value below 5)”, the “Solubility in Diisopropyl adipate (mg/mL)” value was “C (C represents a value below 5)”, the “Solubility in MCT (mg/mL)” value is reported as “C (C represents a value below 5)” and the “Solubility in Propylene glycol (mg/mL)” value was “C (C represents a value below 5)”.
Regarding `CCS(=O)(=O)N1[C@@H]2CCC[C@H]1C[C@H](N(C)c1nc(Nc3cc(C)[nH]n3)cc(OC3COC3)n1)C2` [Compound 34, N^2-((1R,3s,5S)-9-(ethylsulfonyl)-9-azabicyclo[3.3.1]nonan-3-yl)-N2-methyl-N4-(5-methyl-1H-pyrazol-3-yl)-6-(oxetan-3-yloxy)pyrimidine-2,4-diamine], the “Solubility at PH 7.4 (μmol)” value in “Aqueous Solubility Assay” is on record as “E (E represents a value below 10)”. For the same compound, the “JAK 3 (pKi)” value at JAK3 was “B (B represents a pKi value between 9 and 10 (Ki between 1 nM and 0.1 nM))”. In data set [1], the “Tall-1 IL2 pSTAT5 (pIC50)” value is given as “A (A represents a pIC50 value ≥8.0)”. Moreover, at JAK1, the “JAK 1 (pKi)” value is reported as “A (A represents a pKi value ≥10 (Ki≤0.1 nM))”. In data set [2], the “Solubility in PEG400 (mg/mL)” value was “C (C represents a value below 5)”, the “Solubility in Diisopropyl adipate (mg/mL)” value is “C (C represents a value below 5)”, the “Solubility in MCT (mg/mL)” value is given as “C (C represents a value below 5)” and the “Solubility in Propylene glycol (mg/mL)” value was “C (C represents a value below 5)”.

The values above are taken from patent publication US11439641B2, “Pyrimidine JAK inhibitors for the treatment of skin diseases” (THERAVANCE BIOPHARMA R&D IP, LLC, priority 2019, dated 2022).
